# Measurements as given in US20180147301A1, “SOLID ORAL COMPOSITION CONTAINING DYES” (COSMO TECHNOLOGIES LTD., priority 2016, published 2018).
# Columns and labels:
# CYP 2C8 = biological target: T1, CYP 2C8 (Homo sapiens, UniProt P10632)
# T1 sequence (P10632 1-490): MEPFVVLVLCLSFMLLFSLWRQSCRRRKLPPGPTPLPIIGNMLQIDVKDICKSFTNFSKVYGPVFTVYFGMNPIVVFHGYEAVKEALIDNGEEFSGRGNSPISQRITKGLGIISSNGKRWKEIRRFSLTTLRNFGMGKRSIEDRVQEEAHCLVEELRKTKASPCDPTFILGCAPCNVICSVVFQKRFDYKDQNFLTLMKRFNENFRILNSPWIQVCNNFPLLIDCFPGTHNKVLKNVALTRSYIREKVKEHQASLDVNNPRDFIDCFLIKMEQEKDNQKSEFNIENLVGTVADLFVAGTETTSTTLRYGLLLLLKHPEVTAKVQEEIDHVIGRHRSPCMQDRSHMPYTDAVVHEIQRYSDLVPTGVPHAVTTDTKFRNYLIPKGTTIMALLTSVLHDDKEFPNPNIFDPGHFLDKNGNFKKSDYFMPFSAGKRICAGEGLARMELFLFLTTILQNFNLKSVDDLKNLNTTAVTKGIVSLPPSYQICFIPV
# P-gp [1] = biological target: T2, P-gp (Homo sapiens, UniProt P08183); assay: in vitro transporter inhibition study; assay type: in vitro ADME
# CYP 2D6 = CYP 2D6 (Homo sapiens, UniProt P10635)
# CYP 2C9 = CYP 2C9 (Homo sapiens, UniProt P11712)
# CYP 2C19 = CYP 2C19 (Homo sapiens, UniProt P33261)
# CYP 1A2 = biological target: T3, CYP 1A2 (Homo sapiens, UniProt P05177)
# T3 sequence (P05177 1-516): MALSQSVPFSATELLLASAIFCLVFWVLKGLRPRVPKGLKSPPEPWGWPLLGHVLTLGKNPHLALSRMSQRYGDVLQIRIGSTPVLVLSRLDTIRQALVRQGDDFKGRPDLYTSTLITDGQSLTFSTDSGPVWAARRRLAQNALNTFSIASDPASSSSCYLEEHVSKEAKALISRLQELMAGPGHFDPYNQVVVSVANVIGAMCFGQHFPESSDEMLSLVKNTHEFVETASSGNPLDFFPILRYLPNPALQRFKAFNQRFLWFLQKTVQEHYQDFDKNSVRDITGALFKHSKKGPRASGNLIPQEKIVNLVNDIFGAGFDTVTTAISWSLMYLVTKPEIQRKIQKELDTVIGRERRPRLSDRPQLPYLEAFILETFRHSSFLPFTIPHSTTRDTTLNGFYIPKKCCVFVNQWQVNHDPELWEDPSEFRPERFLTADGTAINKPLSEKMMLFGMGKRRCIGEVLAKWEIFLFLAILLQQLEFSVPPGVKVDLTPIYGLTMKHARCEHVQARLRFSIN
# P-gp [2] = biological target: T2, P-gp; assay: in vitro transporter substrate study; assay type: in vitro ADME
# CYP 2B6 = biological target: T4, CYP 2B6 (Homo sapiens, UniProt P20813)
# T4 sequence (P20813 1-491): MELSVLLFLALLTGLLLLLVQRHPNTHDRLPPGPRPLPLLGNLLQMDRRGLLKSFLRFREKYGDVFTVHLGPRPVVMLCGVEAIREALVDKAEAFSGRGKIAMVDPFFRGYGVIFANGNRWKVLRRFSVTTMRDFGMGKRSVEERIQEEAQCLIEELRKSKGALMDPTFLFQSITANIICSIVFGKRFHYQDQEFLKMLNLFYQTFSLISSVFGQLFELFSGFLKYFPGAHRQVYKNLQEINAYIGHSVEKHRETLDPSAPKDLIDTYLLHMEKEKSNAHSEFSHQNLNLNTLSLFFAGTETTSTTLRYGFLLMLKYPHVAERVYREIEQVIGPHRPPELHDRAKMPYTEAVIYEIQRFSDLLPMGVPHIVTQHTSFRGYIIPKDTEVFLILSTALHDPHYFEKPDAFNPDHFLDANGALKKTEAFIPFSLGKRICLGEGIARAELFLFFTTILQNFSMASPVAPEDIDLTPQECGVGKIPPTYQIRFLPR
# T2 sequence (P08183 whole entry): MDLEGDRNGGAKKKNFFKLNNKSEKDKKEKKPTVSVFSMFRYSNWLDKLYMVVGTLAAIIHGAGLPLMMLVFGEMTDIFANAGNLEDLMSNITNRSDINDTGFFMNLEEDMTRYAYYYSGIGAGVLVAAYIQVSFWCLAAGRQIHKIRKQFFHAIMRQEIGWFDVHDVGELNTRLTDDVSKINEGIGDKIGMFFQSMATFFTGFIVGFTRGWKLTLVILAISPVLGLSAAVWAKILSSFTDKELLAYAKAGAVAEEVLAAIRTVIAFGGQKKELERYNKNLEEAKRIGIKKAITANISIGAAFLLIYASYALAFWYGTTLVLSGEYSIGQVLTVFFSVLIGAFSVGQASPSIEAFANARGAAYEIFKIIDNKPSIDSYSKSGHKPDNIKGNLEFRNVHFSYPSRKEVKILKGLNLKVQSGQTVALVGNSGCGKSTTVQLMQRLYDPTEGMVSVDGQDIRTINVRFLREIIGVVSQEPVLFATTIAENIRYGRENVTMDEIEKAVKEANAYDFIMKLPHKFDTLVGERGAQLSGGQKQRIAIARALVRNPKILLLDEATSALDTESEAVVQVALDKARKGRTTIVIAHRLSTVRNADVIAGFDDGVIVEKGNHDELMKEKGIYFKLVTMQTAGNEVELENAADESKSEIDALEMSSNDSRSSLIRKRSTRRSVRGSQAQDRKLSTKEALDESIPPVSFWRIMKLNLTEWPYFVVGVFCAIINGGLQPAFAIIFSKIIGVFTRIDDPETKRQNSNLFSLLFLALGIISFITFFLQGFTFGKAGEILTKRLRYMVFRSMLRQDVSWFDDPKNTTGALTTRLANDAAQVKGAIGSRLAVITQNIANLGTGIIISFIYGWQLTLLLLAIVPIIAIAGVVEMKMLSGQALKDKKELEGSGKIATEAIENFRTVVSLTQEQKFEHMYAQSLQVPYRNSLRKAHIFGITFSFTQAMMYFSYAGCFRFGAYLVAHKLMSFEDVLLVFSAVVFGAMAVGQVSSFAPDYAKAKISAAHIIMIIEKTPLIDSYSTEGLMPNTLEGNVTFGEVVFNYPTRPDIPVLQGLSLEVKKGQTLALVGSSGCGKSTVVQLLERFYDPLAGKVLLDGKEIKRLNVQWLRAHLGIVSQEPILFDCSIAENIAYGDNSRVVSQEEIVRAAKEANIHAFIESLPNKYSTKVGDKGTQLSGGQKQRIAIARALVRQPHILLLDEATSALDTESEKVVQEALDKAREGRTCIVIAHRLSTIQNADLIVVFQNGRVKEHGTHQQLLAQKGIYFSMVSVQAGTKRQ
# CYP 2C19, sequence (P33261 whole entry): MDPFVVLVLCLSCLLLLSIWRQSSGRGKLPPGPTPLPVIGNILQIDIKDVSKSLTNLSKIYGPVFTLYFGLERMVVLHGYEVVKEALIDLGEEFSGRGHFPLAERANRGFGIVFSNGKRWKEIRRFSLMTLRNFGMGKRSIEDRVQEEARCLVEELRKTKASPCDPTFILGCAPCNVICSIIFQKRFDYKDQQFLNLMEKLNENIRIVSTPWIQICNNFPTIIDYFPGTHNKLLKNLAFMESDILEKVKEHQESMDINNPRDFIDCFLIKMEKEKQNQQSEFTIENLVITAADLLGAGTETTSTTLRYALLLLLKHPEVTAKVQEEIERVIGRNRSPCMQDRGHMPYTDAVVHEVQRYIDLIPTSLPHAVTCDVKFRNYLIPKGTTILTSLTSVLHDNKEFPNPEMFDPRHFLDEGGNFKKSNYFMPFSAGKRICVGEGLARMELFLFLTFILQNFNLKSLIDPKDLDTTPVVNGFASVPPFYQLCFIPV
# CYP 2C9, sequence (P11712 whole entry): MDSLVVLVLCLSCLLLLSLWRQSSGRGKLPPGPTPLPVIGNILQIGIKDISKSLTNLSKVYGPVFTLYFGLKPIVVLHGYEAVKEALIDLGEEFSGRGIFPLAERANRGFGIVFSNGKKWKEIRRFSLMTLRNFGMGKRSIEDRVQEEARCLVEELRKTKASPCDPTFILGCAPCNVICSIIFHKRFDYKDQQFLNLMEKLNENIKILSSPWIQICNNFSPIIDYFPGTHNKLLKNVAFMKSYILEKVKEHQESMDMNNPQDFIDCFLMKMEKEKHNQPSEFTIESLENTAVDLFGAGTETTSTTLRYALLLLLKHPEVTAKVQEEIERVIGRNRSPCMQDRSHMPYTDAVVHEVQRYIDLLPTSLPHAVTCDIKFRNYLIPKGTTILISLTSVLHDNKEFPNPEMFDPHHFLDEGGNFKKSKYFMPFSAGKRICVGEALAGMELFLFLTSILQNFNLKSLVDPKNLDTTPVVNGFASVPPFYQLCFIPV
# CYP 2D6, sequence (P10635 whole entry): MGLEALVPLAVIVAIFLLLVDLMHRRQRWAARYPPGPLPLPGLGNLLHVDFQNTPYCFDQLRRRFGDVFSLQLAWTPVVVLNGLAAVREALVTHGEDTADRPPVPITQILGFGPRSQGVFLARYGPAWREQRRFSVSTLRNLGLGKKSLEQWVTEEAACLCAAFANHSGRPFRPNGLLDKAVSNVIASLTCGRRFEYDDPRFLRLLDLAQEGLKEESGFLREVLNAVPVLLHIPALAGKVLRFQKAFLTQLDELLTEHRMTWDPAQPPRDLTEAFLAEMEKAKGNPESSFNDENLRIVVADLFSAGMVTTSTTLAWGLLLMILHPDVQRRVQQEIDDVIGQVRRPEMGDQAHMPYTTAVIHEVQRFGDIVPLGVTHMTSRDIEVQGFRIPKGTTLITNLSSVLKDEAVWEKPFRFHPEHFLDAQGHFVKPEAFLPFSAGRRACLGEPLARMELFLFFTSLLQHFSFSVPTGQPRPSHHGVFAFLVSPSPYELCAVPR
structure (smiles),measurement,setting,value
"CN(C)c1ccc2nc3ccc(=[N+](C)C)cc-3sc2c1 [Methylene blue, Methylthioninium Chloride (Methylene Blue)]",inhibition of CYP isozyme 2C8,CYP 2C8,inhibits
same,inhibitor of P-gp,P-gp [1],weak inhibitor
same,inhibition of CYP isozyme 2D6,CYP 2D6,inhibits
same,inhibition of CYP isozyme 2C9,CYP 2C9,inhibits
same,inhibition of CYP isozyme 3A4/5,CYP 3A4/5,inhibits
same,inhibition of CYP isozyme 2C19,CYP 2C19,inhibits
same,inhibition of CYP isozyme 1A2,CYP 1A2,inhibits
same,substrate of membrane transport protein P-gp,P-gp [2],possible substrate
same,inhibition of CYP isozyme 2B6,CYP 2B6,inhibits
